Measured values reported in patent publication US20060229433A1, “Modified antiviral peptides with increased activity and cell membrane affinity” (priority 2003, published 2006).
“And” between values parts separate entries of the source, which are not always exact repeats. Identical values can stand only once.

Tests used:
Assay type in all cases: cell-based
HIV-1 NL 4-3 [1] = test: HIV-1 infection of C8166 cells (syncytia formation, p24 ELISA) with HIV-1 NL 4-3
How it was run: (§1)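 C8166 T-cells were preincubated with peptide for 1 h at 37 °C, then exposed for 1 h to HIV-1 at 1000 TCID50/ml, washed, and cultured with peptide kept present throughout, with medium replaced at day 4. Infection was scored by syncytia formation and by supernatant p24 ELISA, with at least two runs in duplicate.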

HIV-1 NDK = test: HIV-1 infection of C8166 cells (syncytia formation, p24 ELISA) with HIV-1 NDK; design: key to syncitia formed, Day 4 / syncitia formed, Day 5 / syncitia formed, Day 6 / syncitia formed, Day 7: ++, +, (+), (+)− and − represent decreasing numbers of syncitia formed; ++, +, (+), (+)− and − represent decreasing numbers of syncitia formed; ++, +, (+), (+)− and − represent decreasing numbers of syncitia formed; ++, +, (+), (+)− and − represent decreasing numbers of syncitia formed; ++, +, (+), (+)− and − represent decreasing numbers of syncitia formed; conditions: for P 24: P 24 after Day 7
How it was run: as §1

HIV-1 NL 4-3 [2] = test: HIV-1 infection of C8166 cells (syncytia formation, p24 ELISA) with HIV-1 NL 4-3; design: key: ++, +, (+), (+)− and − represent decreasing numbers of syncitia formed; ++, +, (+), (+)− and − represent decreasing numbers of syncitia formed; ++, +, (+), (+)− and − represent decreasing numbers of syncitia formed; ++, +, (+), (+)− and − represent decreasing numbers of syncitia formed; ++, +, (+), (+)− and − represent decreasing numbers of syncitia formed
How it was run: as §1

[3] = C8166 cells, HIV-1 subtype B NL 4-3, Table 9, two lines = tested twice, 8 days apart

C[C@H](NC(=O)[C@H](CCCNC(=N)N)NC(=O)CNC(=O)[C@@H]1CCCN1C(=O)CN)C(=O)N[C@@H](Cc1ccccc1)C(=O)NCCCC[C@H](NC(=O)[C@H](Cc1ccccc1)NC(=O)[C@H](C)NC(=O)[C@H](CCCNC(=N)N)NC(=O)CNC(=O)[C@@H]1CCCN1C(=O)CN)C(=O)NCCCC[C@H](NC(=O)[C@H](CCCCNC(=O)[C@H](Cc1ccccc1)NC(=O)[C@H](C)NC(=O)[C@H](CCCNC(=N)N)NC(=O)CNC(=O)[C@@H]1CCCN1C(=O)CN)NC(=O)[C@H](Cc1ccccc1)NC(=O)[C@H](C)NC(=O)[C@H](CCCNC(=N)N)NC(=O)CNC(=O)[C@@H]1CCCN1C(=O)CN)C(=O)NCCCC[C@H](NC(=O)[C@H](CCCCNC(=O)[C@H](CCCCNC(=O)[C@H](Cc1ccccc1)NC(=O)[C@H](C)NC(=O)[C@H](CCCNC(=N)N)NC(=O)CNC(=O)[C@@H]1CCCN1C(=O)CN)NC(=O)[C@H](Cc1ccccc1)NC(=O)[C@H](C)NC(=O)[C@H](CCCNC(=N)N)NC(=O)CNC(=O)[C@@H]1CCCN1C(=O)CN)NC(=O)[C@H](CCCCNC(=O)[C@H](Cc1ccccc1)NC(=O)[C@H](C)NC(=O)[C@H](CCCNC(=N)N)NC(=O)CNC(=O)[C@@H]1CCCN1C(=O)CN)NC(=O)[C@H](Cc1ccccc1)NC(=O)[C@H](C)NC(=O)[C@H](CCCNC(=N)N)NC(=O)CNC(=O)[C@@H]1CCCN1C(=O)CN)C(=O)NCCC(=O)O [SPC3, (GPGRAF)8-K4-K2-K-βA-OH, reference compound]
Day 7 syncitia formed (HIV-1 NL 4-3 [1]; 0.005 μM, Table 6): ++/T | Day 7 syncitia formed (HIV-1 NL 4-3 [1]; 0.01 μM, Table 6): ++/T | Day 7 syncitia formed (HIV-1 NL 4-3 [1]; 0.05 μM, Table 6): ++/T | IC50 (HIV-1 NL 4-3 [1]; C8166 cells, HIV-1 subtype B NL 4-3, Table 3): 500 nM | IC50 (HIV-1 NL 4-3 [1]; [3]): 500 nM | IC100 (HIV-1 NL 4-3 [1]; [3]): 5 µM | P 24 (HIV-1 NL 4-3 [1]; Day 4, 5 μM, Table 1): NEG | P 24 (HIV-1 NL 4-3 [1]; Day 4, 5 μM, Table 2): NEG | P 24 (HIV-1 NL 4-3 [1]; Day 7, 0.005 μM, Table 6): 23810 pg/mL | P 24 (HIV-1 NL 4-3 [1]; Day 7, 0.01 μM, Table 6): 23810 pg/mL | P 24 (HIV-1 NL 4-3 [1]; Day 7, 0.05 μM, Table 6): 23810 pg/mL | P 24 (HIV-1 NL 4-3 [1]; Day 7, 0.1 μM, Table 6): 17810 pg/mL and 19850 pg/mL | P 24 (HIV-1 NL 4-3 [1]; Day 7, 0.5 μM, Table 6): 5173 pg/mL and 4840 pg/mL | P 24 (HIV-1 NL 4-3 [1]; Day 7, 2 μM, Table 1): 7589 pg/mL and 14787 pg/mL | P 24 (HIV-1 NL 4-3 [1]; Day 7, 5 μM, Table 1): NEG | P 24 (HIV-1 NL 4-3 [1]; Day 7, 5 μM, Table 2): 288 pg/mL and 342 pg/mL | P 24 (HIV-1 NL 4-3 [1]; Day 7, 5 μM, Table 6): 3 pg/mL | syncitia formed, Day 4 (HIV-1 NDK; 0.005 μM): − | syncitia formed, Day 5 (HIV-1 NDK; 0.005 μM): + | syncitia formed, Day 6 (HIV-1 NDK; 0.005 μM): ++ | syncitia formed, Day 7 (HIV-1 NDK; 0.005 μM): ++/T | P 24 (HIV-1 NDK; 0.005 μM): 23810 pg/mL | syncitia formed, Day 4 (HIV-1 NDK; 0.01 μM): − | syncitia formed, Day 5 (HIV-1 NDK; 0.01 μM): + | syncitia formed, Day 6 (HIV-1 NDK; 0.01 μM): ++ | syncitia formed, Day 7 (HIV-1 NDK; 0.01 μM): ++/T | P 24 (HIV-1 NDK; 0.01 μM): 23810 pg/mL | syncitia formed, Day 4 (HIV-1 NDK; 0.05 μM): − | syncitia formed, Day 5 (HIV-1 NDK; 0.05 μM): + | syncitia formed, Day 6 (HIV-1 NDK; 0.05 μM): ++ | syncitia formed, Day 7 (HIV-1 NDK; 0.05 μM): ++/T | P 24 (HIV-1 NDK; 0.05 μM): 23810 pg/mL | syncitia formed, Day 4 (HIV-1 NDK; 0.1 μM): − | syncitia formed, Day 5 (HIV-1 NDK; 0.1 μM): (+) | syncitia formed, Day 6 (HIV-1 NDK; 0.1 μM): + and ++ | syncitia formed, Day 7 (HIV-1 NDK; 0.1 μM): ++ | P 24 (HIV-1 NDK; 0.1 μM): 18810 pg/mL and 20850 pg/mL | syncitia formed, Day 4 (HIV-1 NDK; 0.5 μM): − | syncitia formed, Day 5 (HIV-1 NDK; 0.5 μM): − | syncitia formed, Day 6 (HIV-1 NDK; 0.5 μM): + | syncitia formed, Day 7 (HIV-1 NDK; 0.5 μM): ++ | P 24 (HIV-1 NDK; 0.5 μM): 15173 pg/mL and 12840 pg/mL | syncitia formed, Day 4 (HIV-1 NDK; 1 μM): − | syncitia formed, Day 5 (HIV-1 NDK; 1 μM): − | syncitia formed, Day 6 (HIV-1 NDK; 1 μM): − | syncitia formed, Day 7 (HIV-1 NDK; 1 μM): (+) | syncitia formed, Day 4 (HIV-1 NDK; 5 μM): − | syncitia formed, Day 5 (HIV-1 NDK; 5 μM): − | syncitia formed, Day 6 (HIV-1 NDK; 5 μM): − | syncitia formed, Day 7 (HIV-1 NDK; 5 μM): − | IC50 (HIV-1 NDK; HIV 1 NDK, Table 10): 600 nM | IC100 (HIV-1 NDK; HIV 1 NDK, Table 10): 5 µM | Day 4 syncitia formed (HIV-1 NL 4-3 [2]; 0.005 μM, Table 6): − | Day 5 syncitia formed (HIV-1 NL 4-3 [2]; 0.005 μM, Table 6): + | Day 6 syncitia formed (HIV-1 NL 4-3 [2]; 0.005 μM, Table 6): ++ | Day 4 syncitia formed (HIV-1 NL 4-3 [2]; 0.01 μM, Table 6): − | Day 5 syncitia formed (HIV-1 NL 4-3 [2]; 0.01 μM, Table 6): + | Day 6 syncitia formed (HIV-1 NL 4-3 [2]; 0.01 μM, Table 6): ++ | Day 4 syncitia formed (HIV-1 NL 4-3 [2]; 0.05 μM, Table 6): − | Day 5 syncitia formed (HIV-1 NL 4-3 [2]; 0.05 μM, Table 6): + | Day 6 syncitia formed (HIV-1 NL 4-3 [2]; 0.05 μM, Table 6): ++ | Day 4 syncitia formed (HIV-1 NL 4-3 [2]; 0.1 μM, Table 6): − | Day 5 syncitia formed (HIV-1 NL 4-3 [2]; 0.1 μM, Table 6): (+) | Day 6 syncitia formed (HIV-1 NL 4-3 [2]; 0.1 μM, Table 6): + and ++ | Day 7 syncitia formed (HIV-1 NL 4-3 [2]; 0.1 μM, Table 6): ++ | Day 4 syncitia formed (HIV-1 NL 4-3 [2]; 0.5 μM, Table 6): − | Day 5 syncitia formed (HIV-1 NL 4-3 [2]; 0.5 μM, Table 6): − | Day 6 syncitia formed (HIV-1 NL 4-3 [2]; 0.5 μM, Table 6): (+) | Day 7 syncitia formed (HIV-1 NL 4-3 [2]; 0.5 μM, Table 6): + | Day 4 syncitia formed (HIV-1 NL 4-3 [2]; 1 μM, Table 6): − | Day 5 syncitia formed (HIV-1 NL 4-3 [2]; 1 μM, Table 6): − | Day 6 syncitia formed (HIV-1 NL 4-3 [2]; 1 μM, Table 6): − | Day 7 syncitia formed (HIV-1 NL 4-3 [2]; 1 μM, Table 6): (+) | Day 4 syncitia formed (HIV-1 NL 4-3 [2]; 2 μM, Table 1): − | Day 5 syncitia formed (HIV-1 NL 4-3 [2]; 2 μM, Table 1): (+) and (+)− | Day 6 syncitia formed (HIV-1 NL 4-3 [2]; 2 μM, Table 1): + | Day 7 syncitia formed (HIV-1 NL 4-3 [2]; 2 μM, Table 1): ++ | Day 4 syncitia formed (HIV-1 NL 4-3 [2]; 5 μM, Table 1): − | Day 5 syncitia formed (HIV-1 NL 4-3 [2]; 5 μM, Table 1): − | Day 6 syncitia formed (HIV-1 NL 4-3 [2]; 5 μM, Table 1): − | Day 7 syncitia formed (HIV-1 NL 4-3 [2]; 5 μM, Table 1): − | Day 4 syncitia formed (HIV-1 NL 4-3 [2]; 5 μM, Table 6): − | Day 5 syncitia formed (HIV-1 NL 4-3 [2]; 5 μM, Table 6): − | Day 6 syncitia formed (HIV-1 NL 4-3 [2]; 5 μM, Table 6): − | Day 7 syncitia formed (HIV-1 NL 4-3 [2]; 5 μM, Table 6): −
